Data: paper PMC5464911, “SEL120-34A is a novel CDK8 inhibitor active in AML cells with high levels of serine phosphorylation of STAT1 and STAT5 transactivation domains” (Oncotarget, 2017)
Values belong to the compound of their own block, whether it stands above or below them.

How the values were obtained:
MOLM-14 cell line = test system: MOLM-14 cell line; set-up: method as in PMID 26416749; conditions: previously identified; cited from earlier work
CDK8/CycC = CDK8/CycC (Homo sapiens, UniProt P49336); test: Radiometric protein kinase assay (PanQinase, ProQinase)
Description: (§1) A radiometric protein kinase assay (PanQinase® Activity Assay, ProQinase) was used for measuring activities of CDK8/CycC and CDK19/CycC protein kinases.

CDK19/CycC = CDK19/CycC (Homo sapiens, UniProt Q9BWU1); test: as above
Description: as §1

RNAP II CTD S2 and S5 = test: RNAP II CTD phosphorylation in HCT-116 cells (WB); type: cell-based; conditions: SEL120-34A up to 2.5 μM
Description: 0,1% SDS; 20 mM β-glicerol phosphate; 5 mM NaF; cat. # sc835), α-STAT5-pS726 (1:1000; Abcam, cat. # 1 mM Na3VO4) supplemented with protease inhibitors ab128896), α-STAT5-pY694 (1:1000; Cell Signaling, (Santa Cruz Biotechnology). Tumor samples were cat. #C11C5), α-tubulin (1:4000; Sigma, cat. # T5192) homogenized in 15 sec intervals and kept on ice between and β-actin (1:4000, Sigma cat. # A2066) or GAPDH homogenization cycles. Protein concentration in lysates (1:20000; Sigma, cat. # G9545) was measured by the Bradford assay and adjusted to achieve the same final concentration in each well (20-30 mRNA extraction from xenograft tissue μg protein/well). […] A scoop Unless indicated otherwise, membranes were blocked of a tumor (~25mg) was homogenized with a pestle for 45 min with 2% fat-free dried milk (Rovema, Poland) under liquid nitrogen and immediately processed in Tris-buffered saline (TBS) + 0.05% Tween (TBST), according to the RNeasy Mini Kit protocol (Qiagen). incubated overnight at 4°C with primary antibodies diluted The RNA concentration was measured by a NanoDrop into 2% milk in TBST and washed four times for 10 min spectrophotometer and stored at -80°C for downstream with TBST. […]
with the activities of CDK9 in cells. […] Protein levels of RNAP II CTD pS2, pS5, cMYC and GAPDH were measured by WB.

STAT5 S726 and Y694 = test: STAT phosphorylation in SET-2 cells (JAK2 V617F), WB; type: cell-based; conditions: 24 hours
Description: (B) SEL120-34A inhibits IFN-dependent phosphorylation of STAT1 S727. HCT-116 cells stimulated with IFNg for 4 h were treated with increasing doses of SEL120-34A, Flavopiridol (F) or vehicle DMSO (C) to determine changes in the phosphorylation of STAT1 S727 and Y701, as measured by WB. (*) unspecific band. (C) SEL120-34A inhibits serine phosphorylation of STAT1 S727 and STAT5 S726, whereas Ruxolitinib inhibits tyrosine phosphorylation of STAT1 Y701 and STAT5 Y694 in JAK2 V617F cells. SET-2 cells were treated with Ruxolitinib, SEL120-34A or vehicle DMSO (C) for 24 hours and protein levels of pS727, pY701 STAT1 and pS726, pY694 STAT5 were measured by WB. […]
0,1% SDS; 20 mM β-glicerol phosphate; 5 mM NaF; cat. # sc835), α-STAT5-pS726 (1:1000; Abcam, cat. # 1 mM Na3VO4) supplemented with protease inhibitors ab128896), α-STAT5-pY694 (1:1000; Cell Signaling, (Santa Cruz Biotechnology). […] Protein concentration in lysates (1:20000; Sigma, cat. # G9545) was measured by the Bradford assay and adjusted to achieve the same final concentration in each well (20-30 mRNA extraction from xenograft tissue μg protein/well). […] Prior to microarray analyses, the quality of the incubation with secondary donkey anti-rabbit antibodies RNA samples was determined using an Agilent 2100 conjugated to HRP, used at 1:4000 (Cell Signaling, Bioanalyzer (Agilent Technologies, CA, USA). […]

ME-1 = test: Extended viability test (AlamarBlue); type: cell-based; conditions: extended viability assay
MOLM16 = test: Extended viability test (AlamarBlue); type: cell-based; conditions: extended viability assay
GDM-1 = test: Extended viability test (AlamarBlue); type: cell-based; conditions: Homo sapiens, extended viability assay
KG-1 = test: Extended viability test (AlamarBlue); type: cell-based; conditions: Homo sapiens, extended viability assay
EOL-1 = test: Extended viability test (AlamarBlue); type: cell-based; conditions: Homo sapiens, EOL1; extended viability assay
Oci-AML5 = test: Extended viability test (AlamarBlue); type: cell-based; conditions: Homo sapiens, OCI-AML-5; extended viability assay
MV4-11 = test: Extended viability test (AlamarBlue); type: cell-based; conditions: Homo sapiens, extended viability assay
Oci-AML3 = test: Extended viability test (AlamarBlue); type: cell-based; conditions: Homo sapiens, OCI-AML-3; extended viability assay
Kasumi-1 = test: Extended viability test (AlamarBlue); type: cell-based; conditions: Homo sapiens, extended viability assay
MOLM13 = test: Extended viability test (AlamarBlue); type: cell-based; conditions: Homo sapiens, MOLM-13; extended viability assay
PL-21 = test: Extended viability test (AlamarBlue); type: cell-based; conditions: extended viability assay
SIG-M5 = test: Extended viability test (AlamarBlue); type: cell-based; conditions: Homo sapiens, extended viability assay
SKM-1 = test: Extended viability test (AlamarBlue); type: cell-based; conditions: Homo sapiens, extended viability assay
AML cell lines = test: Broad profiling in a panel of AML cell lines (extended viability tests); type: cell-based; conditions: SKNO-1, KG-1, HEL-60, MOLM-16, MV-4-11, OciAML-2, MOLM-6 and OciAML-3; read-out: GI50 in sensitive responder cell lines
Description: Mean GI50 (day 10) is shown and plotted on the graph (n=3). (D) Levels of phosphorylated STAT5 S726 and […] in AML cells from the panel C were measured by WB. Densitometry for STAT5 S726 and […] signals is shown and plotted on the graph. Cell lines from the panel D were divided into two classes based on the sensitivity to CDK8 inhibitors treatment (responders GI50<1 μM and non-responder GI50>1 μM), mean levels of STAT5 S726 (E) or STAT1 S727 (F) in selected cell lines measured by densitometry were presented on scatter plots. Differences between responder and non-responder were assessed by t-tests (p value is shown).
Cells grown in suspension were plated onto 96-well culture dishes in triplicate at 20000 cells per well in 200 μl of their culture medium, except Kasumi-1 cells, which were plated at 60 000/well. Cells were incubated in the presence of vehicle, 1 μM docetaxel (positive control, Santa Cruz Biotechnology) or 6 serially - diluted concentrations of tested compound. The compound effect was determined by AlamarBlue measurement. On days 3, 6-7 and 10, an equal volume from all wells was also split-back with fresh media supplemented with tested compound, resulting in a cell density for the vehicle well that matched the initial seeding density. […]

Sequence of CDK8/CycC (P49336 whole entry): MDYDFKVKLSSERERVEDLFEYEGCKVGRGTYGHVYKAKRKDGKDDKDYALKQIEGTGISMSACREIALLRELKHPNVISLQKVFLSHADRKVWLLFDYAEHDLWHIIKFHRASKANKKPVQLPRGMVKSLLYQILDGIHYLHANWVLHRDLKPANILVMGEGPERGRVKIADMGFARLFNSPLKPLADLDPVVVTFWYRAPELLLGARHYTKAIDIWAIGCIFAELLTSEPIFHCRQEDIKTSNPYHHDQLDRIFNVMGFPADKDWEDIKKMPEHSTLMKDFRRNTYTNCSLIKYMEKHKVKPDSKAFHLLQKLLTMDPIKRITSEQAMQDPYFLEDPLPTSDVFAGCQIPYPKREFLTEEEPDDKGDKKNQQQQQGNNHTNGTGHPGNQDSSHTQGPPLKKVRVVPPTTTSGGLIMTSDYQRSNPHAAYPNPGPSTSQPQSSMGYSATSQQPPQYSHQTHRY
Sequence of CDK8/CycC (P24863 whole entry partner): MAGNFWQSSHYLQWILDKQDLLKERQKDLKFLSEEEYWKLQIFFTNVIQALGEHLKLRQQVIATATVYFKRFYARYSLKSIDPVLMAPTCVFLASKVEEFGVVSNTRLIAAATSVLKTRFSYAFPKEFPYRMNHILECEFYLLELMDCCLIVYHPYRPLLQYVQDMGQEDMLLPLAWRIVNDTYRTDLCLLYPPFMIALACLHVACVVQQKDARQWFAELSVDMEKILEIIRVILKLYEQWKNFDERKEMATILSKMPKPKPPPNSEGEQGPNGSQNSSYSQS
Sequence of CDK19/CycC (Q9BWU1 whole entry): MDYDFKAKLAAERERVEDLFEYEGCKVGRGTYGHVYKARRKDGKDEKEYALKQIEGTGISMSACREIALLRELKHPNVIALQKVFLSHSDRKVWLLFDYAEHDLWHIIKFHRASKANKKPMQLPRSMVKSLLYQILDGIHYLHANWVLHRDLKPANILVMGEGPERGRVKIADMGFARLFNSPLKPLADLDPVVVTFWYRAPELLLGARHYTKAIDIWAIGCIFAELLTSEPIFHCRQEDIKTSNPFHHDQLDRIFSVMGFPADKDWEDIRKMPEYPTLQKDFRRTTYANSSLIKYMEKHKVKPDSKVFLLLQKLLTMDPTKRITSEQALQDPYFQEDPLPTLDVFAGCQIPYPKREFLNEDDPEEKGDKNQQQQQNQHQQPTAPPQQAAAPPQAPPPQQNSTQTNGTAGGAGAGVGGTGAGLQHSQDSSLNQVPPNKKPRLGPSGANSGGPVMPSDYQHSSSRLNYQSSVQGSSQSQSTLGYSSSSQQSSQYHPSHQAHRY
Sequence of CDK19/CycC (P24863 whole entry partner): as the sequence (P24863 whole entry partner) above

SMILES: CN(C)[C@H]1C[C@@]23CC[C@@]4(O2)C(=CC[C@]2(C)[C@@H](c5ccc6ccncc6c5)CC[C@H]24)C=C3[C@@H](O)[C@@H]1O [CA, Cortistatin A]
sensitivity of MOLM-14 cell line to treatment (MOLM-14 cell line): sensitive

IC50 (CDK8/CycC): 4.2 nM
IC50 (CDK19/CycC): 14.4 nM
SMILES: Cn1cc(-c2ccc(-c3cncc(Cl)c3N3CCC4(CCNC4=O)CC3)cc2)cn1 [CCT251545, reference compound]

SMILES: CN1CC[C@H](c2c(O)cc(O)c3c(=O)cc(-c4ccccc4Cl)oc23)[C@H](O)C1 [Flavopiridol, reference compound]
RNAP II CTD phosphorylation at S2 and S5 (RNAP II CTD S2 and S5): active

SMILES: N#CC[C@H](C1CCCC1)n1cc(-c2ncnc3[nH]ccc23)cn1 [Ruxolitinib, reference compound]
STAT5 S726 phosphorylation (STAT5 S726 and Y694): unaffected
STAT5 Y694 phosphorylation (STAT5 S726 and Y694): inhibition

GI50 (MOLM16): 340 nM
GI50 (Oci-AML5): 70 nM
GI50 (MV4-11): 230 nM
GI50 (Oci-AML3): 360 nM
GI50 (MOLM13): 5000 nM
GI50 (SKM-1): 5000 nM
IC50 (CDK8/CycC): 17.3 nM
SMILES: CN1CCN(C(=O)c2ccc3cc(CCNc4ncnc5ccc(C#N)cc45)ccc3c2)CC1 [Senexin B, reference compound]
GI50 (ME-1): 170 nM
GI50 (GDM-1): 270 nM
GI50 (KG-1): 150 nM
GI50 (EOL-1): 960 nM
GI50 (Kasumi-1): 5000 nM
GI50 (PL-21): 2600 nM
GI50 (SIG-M5): 5000 nM
GI50 (AML cell lines): < 1000 nM
